Values quoted from earlier work, collected in patent publication US20050143363A1, “Method for subretinal administration of therapeutics including steroids; method for localizing pharmacodynamic action at the choroid of the retina; and related methods for treatment and/or prevention of retinal diseases” (InnoRx, Inc., priority 2002, published 2005).

Settings: 72 hours after injection into the vitreous; animal studies

- share of the triamcinolone present in the vitreous that was associated with other tissues including the retina, pigment epithelium, and sclera: less than 1%
SMILES: C[C@]12C=CC(=O)C=C1CC[C@H]1[C@@H]3C[C@@H](O)[C@](O)(C(=O)CO)[C@@]3(C)C[C@H](O)[C@@]12F [triamcinolone]
